According to patent publication US20240366606A1, “MRGPRX2 ANTAGONISTS AND USES THEREOF” (The Regents of the University of California, priority 2021, published 2024):
pEC50: −log10 of the molar value. Values belong to the molecule of their own block, whether it stands above or below them.

What was measured:
MRGPRX4 [1] = target: MRGPRX4 (Homo sapiens, UniProt Q96LA9, L83S); experiment: Mutagenesis of MRGPRX4, agonist-stimulated Gq activation; type: cell-based
Description: (§1) Bioluminescence resonance energy transfer assay 2 (BRET2). To measure the receptor mediated G protein activation, HEK293T cells were plating either in six-well dishes containing 350-400 k cells per well, or 10-cm dishes at approximately 2 million per dish 20-24 h prior to transfection. The cells were then transfected with a 1:1:1:1 ratio of the receptor:GurLuc8:Gβ:GγGFP DNA. Transit 2020 (Mirus biosciences) was used to complex the DNA at a ratio of 3 μL Transit/μg DNA, in OptiMEM (GIBCO) at a concentration of 10 ng DNA per μL OptiMEM. After 24 h, the cells were plated in poly-L-lysine coated 96-well white clear bottom cell culture plates in plating media (DMEM+1% dialyzed FBS) at a density of 40-50,000 cells in 200 μl per well and incubated overnight. The next day, the media was carefully aspirated and cells were washed once with 60 μl of drug buffer (1×HBSS, 20 mM HEPES, 0.1% (w/v) BSA, pH 7.4), then 60 μl drug buffer containing coelenterazine 400a (nanolight technology) at 5 μM final concentration was added to each well and incubate for 5 min. Cells were then treated with 30 μl of 3× designated drug for an additional 5 minutes. After drug incubation, plates were read in an LB940 Mithras plate reader (Berthold Technologies) with a 395 nm (RLuc8-coelenterazine 400a) and 510 nm (GFP2) emission filters, at 1 s integration times. Each plate was read four times, and measurements from the fourth read were used in all analyses. BRET ratio was computed as the ratio of the GFP2 emission to rLuc8 emission. Data were normalized to % WT stimulation with indicated reference agonist and analyzed using nonlinear regression “log(agonist) vs. response” in GraphPad Prism 9.0. Log(agonist) vs normalized response—variable slope was used for (R)-ZINC-3573 pocket mutations (D184 Å, E164 Å, W243 Å, F244 Å, L247 Å, and W248 Å).

MRGPRX4 [2] = target: T1, MRGPRX4 (Homo sapiens (Human), UniProt Q96LA9); details: previously identified (ref. 17); cited from earlier work
T1 sequence (Q96LA9 whole entry): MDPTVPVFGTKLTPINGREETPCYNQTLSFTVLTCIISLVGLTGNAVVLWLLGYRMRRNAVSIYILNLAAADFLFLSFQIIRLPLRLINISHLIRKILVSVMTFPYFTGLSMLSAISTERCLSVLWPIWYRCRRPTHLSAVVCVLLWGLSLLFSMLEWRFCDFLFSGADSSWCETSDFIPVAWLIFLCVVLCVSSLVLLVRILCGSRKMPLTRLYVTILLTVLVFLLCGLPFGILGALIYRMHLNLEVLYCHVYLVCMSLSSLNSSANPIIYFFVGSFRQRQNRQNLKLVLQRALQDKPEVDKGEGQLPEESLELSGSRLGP

MRGPRX2 [3] = target: MRGPRX2 (Homo sapiens, UniProt Q96LB1, F170A); experiment: BRET2 Gq activation, MRGPRX2 pocket mutants, HEK293T cells; type: cell-based
Description: as §1

MRGPRX2 [4] = target: MRGPRX2 (Homo sapiens, UniProt Q96LB1, W243A); experiment: as above; type: cell-based
Description: as §1

MRGPRX2 [5] = experiment: as above; type: cell-based, human
Description: as §1

MRGPRX4 [6] = target: T1, MRGPRX4; experiment: MRGPRX4 agonist activity (FLIPR Ca2+ assay, concentration-response); type: cell-based
Description: FLIPR Ca2+ assay. Tetracycline inducible MRGPRX2 or MRGPRX4 stable cells [Flp-In™ T-REx™-293 cell which is derived from HEK 293 cells (ATCC, CRL 1573)] were maintained in DMEM containing 10% (v/v) FBS, 100 units ml^−1 penicillin G, 100 μg ml^−1 streptomycin, 100 μg ml^−1 hygromycin B, and 15 μg ml^−1 blasticidin ^16. NK1 stably expressing cell were maintained in DMEM containing 10% (v/v) FBS, 100 units ml^−1 penicillin G and 100 μg ml^−1 streptomycin. On the day of assay, cells were plated into Poly-L-Lysine (PLL) coated 384-well black clear bottom cell culture plates with DMEM buffer, which is composed of 1% (v/v) dialyzed FBS, 100 units ml^−1 penicillin G, 100 μg ml^−1 streptomycin with 1 μg ml^−1 tetracycline at density of 20,000 cells in 40 μl per well for overnight. For NK1 stable cells, the same media used for MRGPRX2 or MRGPRX4 cells except the tetracycline were used. […] Once loaded in FLIPR (Molecular Devices), basal fluorescence was measured for 10 s, then 10 μl of test compounds were added followed by continued fluorescence measurement for an additional 120 s. […] Data were normalized to % reference compound stimulation and analyzed using nonlinear regression “log(agonist) vs. response” in GraphPad Prism 9.0.

[7] = target: Kir6.2/SUR1 potassium channel (Homo sapiens (Human), UniProt Q09428+Q14654); experiment: Electrophysiology of Kir6.2/SUR1 in HEK293 cells; type: cell-based; details: compared to nateglinide
Kir6.2/SUR1 potassium channel, sequence (Q09428 whole entry, the tested form may be a part): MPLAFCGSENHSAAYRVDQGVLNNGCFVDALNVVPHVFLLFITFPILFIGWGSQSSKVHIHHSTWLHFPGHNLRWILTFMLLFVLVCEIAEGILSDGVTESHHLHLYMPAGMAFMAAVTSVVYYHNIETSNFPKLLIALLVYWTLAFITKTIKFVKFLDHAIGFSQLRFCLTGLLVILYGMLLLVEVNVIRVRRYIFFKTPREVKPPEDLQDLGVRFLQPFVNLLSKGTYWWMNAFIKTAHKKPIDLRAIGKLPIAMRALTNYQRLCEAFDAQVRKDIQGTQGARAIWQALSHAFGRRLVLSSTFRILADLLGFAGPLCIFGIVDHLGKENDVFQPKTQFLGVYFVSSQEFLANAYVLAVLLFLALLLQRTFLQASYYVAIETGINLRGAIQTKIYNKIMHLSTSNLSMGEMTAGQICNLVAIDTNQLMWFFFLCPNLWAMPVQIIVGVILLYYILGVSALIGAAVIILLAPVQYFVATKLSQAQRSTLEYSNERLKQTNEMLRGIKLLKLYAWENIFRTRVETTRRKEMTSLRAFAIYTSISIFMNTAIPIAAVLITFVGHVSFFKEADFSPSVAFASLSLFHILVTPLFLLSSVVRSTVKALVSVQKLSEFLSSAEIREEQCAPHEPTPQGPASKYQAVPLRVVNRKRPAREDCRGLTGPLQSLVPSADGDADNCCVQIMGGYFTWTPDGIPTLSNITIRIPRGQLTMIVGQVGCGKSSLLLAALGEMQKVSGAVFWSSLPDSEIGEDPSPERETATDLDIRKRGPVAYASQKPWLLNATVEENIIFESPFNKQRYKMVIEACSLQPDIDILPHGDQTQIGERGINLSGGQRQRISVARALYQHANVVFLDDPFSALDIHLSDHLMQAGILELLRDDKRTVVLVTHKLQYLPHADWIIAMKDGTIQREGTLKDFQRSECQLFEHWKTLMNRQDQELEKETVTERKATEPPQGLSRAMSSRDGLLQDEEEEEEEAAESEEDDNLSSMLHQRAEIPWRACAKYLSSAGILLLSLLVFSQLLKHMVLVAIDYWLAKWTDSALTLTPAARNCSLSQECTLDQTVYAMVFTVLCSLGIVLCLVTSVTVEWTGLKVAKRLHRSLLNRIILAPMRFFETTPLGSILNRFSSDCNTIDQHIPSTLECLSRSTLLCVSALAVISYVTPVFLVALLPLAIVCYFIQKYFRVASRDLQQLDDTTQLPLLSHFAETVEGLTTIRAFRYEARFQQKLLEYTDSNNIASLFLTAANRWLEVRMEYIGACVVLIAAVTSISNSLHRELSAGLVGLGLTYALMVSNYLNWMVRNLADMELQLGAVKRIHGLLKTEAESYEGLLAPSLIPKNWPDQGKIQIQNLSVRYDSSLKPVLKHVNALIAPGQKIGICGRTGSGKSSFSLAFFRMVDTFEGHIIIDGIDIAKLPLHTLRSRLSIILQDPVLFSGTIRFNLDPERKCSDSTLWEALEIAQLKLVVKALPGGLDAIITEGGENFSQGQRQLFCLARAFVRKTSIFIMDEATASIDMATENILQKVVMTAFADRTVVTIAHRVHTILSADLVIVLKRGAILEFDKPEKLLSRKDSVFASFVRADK
Kir6.2/SUR1 potassium channel, sequence (Q14654 whole entry, the tested form may be a part): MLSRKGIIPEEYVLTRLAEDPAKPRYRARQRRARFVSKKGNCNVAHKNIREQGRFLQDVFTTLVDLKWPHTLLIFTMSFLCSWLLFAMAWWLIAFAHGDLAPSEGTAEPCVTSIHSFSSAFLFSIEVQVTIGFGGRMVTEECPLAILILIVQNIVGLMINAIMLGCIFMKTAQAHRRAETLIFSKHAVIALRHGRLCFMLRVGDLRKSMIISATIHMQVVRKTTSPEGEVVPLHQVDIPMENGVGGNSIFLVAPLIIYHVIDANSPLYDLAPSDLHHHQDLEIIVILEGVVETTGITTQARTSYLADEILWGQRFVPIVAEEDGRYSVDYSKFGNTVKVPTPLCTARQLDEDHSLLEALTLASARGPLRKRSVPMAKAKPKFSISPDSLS
Description: Electrophysiology. HEK293 cells were cultured in DMEM with 4.5 g L-^1 glucose, L-glutamine, and sodium pyruvate (Mediatech) containing 10% (v/v) FBS (Axenia BioLogix) and 1% (v/v) penicillin-streptomycin, at 37° C. and with 5% CO2. Cells were lifted with trypsin-EDTA (Life Technologies) and passaged to 6-well plates (Warner Instruments) 3-4 d before recording. Transient transfection was performed with Lipofectamine 2000 (Thermo Fisher Scientific) 2 days before recording. The plasmids of human Kir6.2 and SUR1 were the gift from Dr. Show-Ling Shyng (Oregon Health and Science University), and we fused mCherry fluorescent protein to the C-terminus of Kir6.2. The vector ratio for co-transfection of Kir6.2 to SUR1 was 1:10. Before recording, cells were lifted with trypsin-EDTA, kept in modified Tyrode's saline (140 mM NaCl, 5 mM KCl, 10 mM HEPES, 2 mM CaCl2), 1 mM MgCl2, 10 mM glucose, pH 7.2 ˜ 7.3 with HCl), and were used within 8 hours. For recording, an aliquot of cells was transferred to a recording chamber on a Nikon-TE2000 Inverted Scope (Nikon Instruments), and transfection was confirmed with fluorescent microscopy. The pipette solution contained: 145 mM KCl, 1 mM MgCl2, 5 mM EGTA, 2 mM CaCl2), 20 mM HEPES, 0.3 mM K2-ATP and 0.3 mM K2-ADP. Patch borosilicate pipettes (Sutter Instrument) were pulled from a Sutter P-97 puller with resistances of 2-3 MΩ. […]

320 GPCRs = experiment: PRESTO-Tango GPCRome screening; type: cell-based; details: 3 μM
Description: GPCRome Screening. Screening of compounds against the PRESTO-Tango GPCRome was accomplished using previously described methods with several modifications (63). First, HTLA cells were plated in white 384-well clear bottom plates (Greiner) in DMEM (Sigma) with 1% (v/v) dialyzed FBS and 10 U per mL penicillin-streptomycin (Gibco). After 24 h, the cells were transfected using PEI (Sigma) with an in-plate adapted method (64). Briefly, 17 ng per well PRESTO-Tango GPCR DNAs were resuspended in OptiMEM (Gibco) and hybridized with PEI prior to dilution and distribution into 384-well plates and subsequent addition to cells. After overnight incubation, MS47134 at 5× final concentration (3 μM) diluted in DMEM with 1% (v/v) dialyzed FBS were added to cells without replacement of the medium for 18-20 h. On the day of assay, medium and drug solution were dumped and loaded with 20 ul per well of Bright-Glo reagent (Promega). Plates were incubated for 20 min in the dark and the luminescence was counted for cells using SpectraMax Luminescence reader. Dopamine receptor D2 serves as an assay control with 0.1 mM Quinpirole. Data were analyzed using GraphPad Prism 9.0.

MRGPRX4 [8] = target: MRGPRX4 (Homo sapiens, UniProt Q96LA9, Y130A); experiment: Mutagenesis of MRGPRX4, agonist-stimulated Gq activation; type: cell-based
Description: as §1

Molecule: CC(C)[C@H]1CC[C@H](C(=O)N[C@H](Cc2ccccc2)C(=O)O)CC1 [nateglinide, reference compound]
effect of L83S mutation on potency (MRGPRX4 [1]): greatly attenuated the potency
agonist potency at MRGPRX4 (MRGPRX4 [2]): low micromolar agonist

reduction of potency by F170(ECL2)A mutation (MRGPRX2 [3]): 7 fold
effect of W243(6.55)A substitution on activity (MRGPRX2 [4]): completely reduced the activity
Molecule: cortistatin-14

Molecule: CN(C)[C@@H]1CCN(c2cc(-c3ccccc3)nc3ccnn23)C1 [(R)-ZINC-3573]
effect of substitution of D184(5.38) and E164(4.60) on efficacy (MRGPRX2 [5]): impaired the efficacy

pEC50 (MRGPRX4 [6]): 6.82
improved selectivity for MRGPRX4 over the Kir6.2/SUR1 potassium channel [7]: 47 fold
Molecule: C[C@]12CC3CC(C(=O)N[C@H](Cc4ccccc4)C(=O)O)(C1)C[C@@](C)(C3)C2 [MS47134]
off-target profiling at 320 GPCRs (320 GPCRs): activity only at MRGPRX4 and MRGPRX1
effect of L83S mutation on potency (MRGPRX4 [1]): greatly attenuated the potency
effect of Y130(ICL2)A mutation on potency of Gq activation (MRGPRX4 [8]): reduced the potency
